Where a name gives a salt, the structure may show the parent alone.
T1: SmTAL1 (Sm22.6) (Schistosoma mansoni, UniProt P14202)
T1 construct: gene A12; recombinant, E. coli, N-terminal GST fusion cleaved with thrombin; EF-hand N-terminal plus DLC-like C-terminal domain; dimer
T1 sequence (P14202 1-190): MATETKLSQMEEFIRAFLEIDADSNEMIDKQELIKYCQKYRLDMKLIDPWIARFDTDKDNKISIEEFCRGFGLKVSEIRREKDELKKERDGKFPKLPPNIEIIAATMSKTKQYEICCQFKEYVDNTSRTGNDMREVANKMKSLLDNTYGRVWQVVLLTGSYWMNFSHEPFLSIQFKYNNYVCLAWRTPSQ

T2: SmTAL3 (Sm20.8) (Schistosoma mansoni, UniProt P91804)
T2 construct: gene Sm 20.8; recombinant, E. coli, N-terminal GST fusion cleaved with thrombin; EF-hand-like N-terminal plus DLC-like C-terminal domain; dimer and higher oligomers
T2 sequence (P91804 1-181): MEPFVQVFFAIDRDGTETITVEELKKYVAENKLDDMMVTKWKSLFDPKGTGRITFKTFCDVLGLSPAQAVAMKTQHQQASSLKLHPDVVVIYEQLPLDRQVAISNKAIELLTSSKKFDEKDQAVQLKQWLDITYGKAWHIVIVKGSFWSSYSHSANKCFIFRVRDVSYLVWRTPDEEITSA

T3: SmTAL2 (Sm21.7) (Schistosoma mansoni, UniProt P32070)
T3 construct: recombinant, E. coli, N-terminal GST fusion cleaved with thrombin; EF-hand N-terminal plus DLC-like C-terminal domain; dimer
T3 sequence (P32070 1-184): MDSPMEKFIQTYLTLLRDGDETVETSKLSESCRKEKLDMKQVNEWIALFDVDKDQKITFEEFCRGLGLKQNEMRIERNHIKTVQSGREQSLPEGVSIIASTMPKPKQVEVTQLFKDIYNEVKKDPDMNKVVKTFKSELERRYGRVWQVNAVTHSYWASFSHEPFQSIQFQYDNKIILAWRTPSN


What was measured:
SmTAL1 (Sm22.6) = target: T1, SmTAL1 (Sm22.6); test: differential scanning fluorimetry (Sypro Orange); assay type: binding; conditions: 250 µM; 0.25 mM drug, 5 μM protein, 1% DMSO, 0.8 mM CaCl2, 50 mM Hepes pH 7.5, 150 mM NaCl; absolute Tm, not a shift (DMSO control in the 1st table, row 5)
Excerpt: differential scanning fluorimetry (Sypro Orange) on SmTAL1 (Sm22.6)

SmTAL3 (Sm20.8) = target: T2, SmTAL3 (Sm20.8); test: differential scanning fluorimetry (Sypro Orange); assay type: binding; conditions: 250 µM; 0.25 mM drug, 7 μM protein, 1% DMSO, 0.8 mM CaCl2, 50 mM Hepes pH 7.5, 150 mM NaCl; absolute Tm, not a shift (DMSO control in the 1st table, row 5)
Excerpt: differential scanning fluorimetry (Sypro Orange) on SmTAL3 (Sm20.8)

SmTAL2 (Sm21.7) = target: T3, SmTAL2 (Sm21.7); test: limited proteolysis protection (trypsin, chymotrypsin); assay type: binding; conditions: 250 μM drug, 10 μM protein, 1% DMSO, 0.8 mM CaCl2, 37 °C
[1] = target: SmTAL3 (Schistosoma mansoni tegumental allergen-like protein 3) (Schistosoma mansoni); test: cross-linking; BS3 (50, 150, 500 μM) with 10-15 μM protein in buffer R (50 mM Hepes-OH pH 7.5, 150 mM NaCl, 10% v/v glycerol), 37 °C, 35 min; with 0.8 mM EGTA or 0.8 mM EGTA/1.6 mM calcium chloride; analysed by 15% SDS-PAGE
[2] = target: the molecule itself; test: as above

| Molecule | melting temperature (Tm) (SmTAL1 (Sm22.6)) [°C] | SmTAL3 (SmTAL3 (Sm20.8)) [°C] | other results |
| --- | --- | --- | --- |
| NCCCCCCNS(=O)(=O)c1cccc2c(Cl)cccc12 [W7, N-(6-Aminohexyl)-5-chloro-1-naphthalenesulfonamide hydrochloride] | 61.5 ± 0.3 | 74.3 ± 0.1 | limited proteolysis protection (trypsin, chymotrypsin) (SmTAL2 (Sm21.7)): Of the drugs tested, only W7 protected SmTAL2 from limited proteolysis by trypsin or chymotrypsin |
| CN(C)CCCN1c2ccccc2Sc2ccc(Cl)cc21 [chlorpromazine] | 61.3 ± 0.3 | 74.1 ± 0.1 | – |
| O=C(C1CCCCC1)N1CC(=O)N2CCc3ccccc3C2C1 (centres unmarked) [praziquantel] | 61.7 ± 0.2 | – | – |
| CN1CCN(CCCN2c3ccccc3Sc3ccc(C(F)(F)F)cc32)CC1 [trifluoperazine] | 62.2 ± 0.8 | 73.9 ± 0.1 | – |
| SmTAL3 (Schistosoma mansoni tegumental allergen-like protein 3) (natural protein) | – | – | stoichiometry N [1]: 2 |
| SmTAL2 (Schistosoma mansoni tegumental allergen-like protein 2) (natural protein, UniProt P32070 1-184, looked up, SmTAL2 (Sm21.7), Schistosoma mansoni, GenBank AAA74050.1, Smp_086480.1; also called Sm21.7; source: E. coli, GST-fusion isolated on glutathione-agarose, cleaved with thrombin, free GST removed on Q-Sepharose; not shown: GST, N-terminal, cleaved) MDSPMEKFIQTYLTLLRDGDETVETSKLSESCRKEKLDMKQVNEWIALFDVDKDQKITFEEFCRGLGLKQNEMRIERNHIKTVQSGREQSLPEGVSIIASTMPKPKQVEVTQLFKDIYNEVKKDPDMNKVVKTFKSELERRYGRVWQVNAVTHSYWASFSHEPFQSIQFQYDNKIILAWRTPSN | – | – | stoichiometry N [2]: 2 |
| SmTAL1 (Schistosoma mansoni tegumental allergen-like protein 1) (natural protein, UniProt P14202 1-190, looked up, SmTAL1 (Sm22.6), Schistosoma mansoni, GenBank AAA29922.1, Smp_045200.1; also called Sm22.6; source: E. coli, GST-fusion isolated on glutathione-agarose, cleaved with thrombin, free GST removed on Q-Sepharose; not shown: GST, N-terminal, cleaved) MATETKLSQMEEFIRAFLEIDADSNEMIDKQELIKYCQKYRLDMKLIDPWIARFDTDKDNKISIEEFCRGFGLKVSEIRREKDELKKERDGKFPKLPPNIEIIAATMSKTKQYEICCQFKEYVDNTSRTGNDMREVANKMKSLLDNTYGRVWQVVLLTGSYWMNFSHEPFLSIQFKYNNYVCLAWRTPSQ | – | – | stoichiometry N [2]: 2 |
